Entries after “also recorded” stand apart in the source; their conditions may differ.
Key:
abca4 null mutant mouse = experiment: Effect of HPR on serum retinol, 14 days (Example 11); type: in vivo
Method: Initial studies began by examining the effect of HPR on serum retinol. Animals were divided into three groups and given either DMSO, 10 mg/kg HPR, or 20 mg/kg HPR for 14 days. At the end of the study period, blood was collected from the animals, sera were prepared and an acetonitrile extract of the serum was analyzed by reverse phase LC/MS. UV-visible spectral and mass/charge analyses were performed to confirm the identity of the eluted peaks. Sample chromatograms obtained from these analyses are shown: FIG. 1a.—extract from an abca4 null mutant mouse receiving HPR vehicle, DMSO; FIG. 1b.-10 mg/kg HPR; FIG. 1c.-20 mg/kg HPR. […] For 20 mg/kg HPR, serum retinol is decreased 72%, see FIG. 7. The steady state concentrations of retinol and HPR in serum (at 20 mg/kg HPR) were determined to be 2.11 μM and 1.75 μM, respectively.

wild-type mice = experiment: Ocular retinoid content after 7 days of HPR (HPLC); type: in vivo, mouse; conditions: HPR 5-20 mg/kg/day i.p.
Method: (§1) In one study, wild-type mice were given varied doses of HPR (5-20 mg/kg/day, i.p. in DMSO) for 7 days. Control mice received only DMSO. Mice were maintained on a 12 h/12 h light/dark cycle throughout the treatment period. At the end of the study, the ocular retinoid content was determined by high-performance liquid chromatography (HPLC). Light-adapted, rather than dark-adapted, retinoid profiles were obtained so that a measure of retinoids could be obtained while the visual cycle was actively regenerating chromophore. […] This finding is in sharp contrast to data obtained from analysis of mice treated with 13-cis retinoic acid. […] Reduced 11cRDH activity would lead to reduced levels of 11-cis retinal and accumulation of 11-cis retinol. Free 11-cis retinol would be rapidly esterified via LRAT activity resulting in increased 11-cis retinyl esters. This effect of 13-cis retinoic acid on retinoid biosynthesis was also observed in rats in Sieving P A, et al., Proc Natl Acad Sci USA. 2001; 98(4): 1835-40.

[1] = Ocular retinoid content after 7 days of HPR (HPLC); type: in vivo, mouse; conditions: mouse, RPE (retinal pigment epithelium), intraperitoneal, HPR 5-20 mg/kg/day i.p. in DMSO, dose-dependent, read-out: accumulation of HPR within the RPE
Method: as §1

RBP = RBP (Homo sapiens, UniProt P02753); experiment: Competition binding assay RBP-retinol/HPR by fluorescence quenching
Excerpt: Based upon these findings, we sought to further explore the mechanism(s) of retinol reduction during HPR treatment. A tenable hypothesis is that HPR may displace retinol by competing at the retinol binding site on RBP. […] Therefore, one can measure displacement of retinol from the RBP holoprotein by observing decreases in both protein (340 nm) and retinol (470 nm) fluorescence. We performed a competition binding assay using RBP-retinol/HPR concentrations which were similar to those determined from the 14 day trial at 20 mg/kg HPR described above. […] In the control assays, decreases in retinol fluorescence were associated with concomitant increases in protein fluorescence, see FIG. 3a. This effect was determined to be due to temperature effects as the dissociation constant of RBP-retinol increases (decreased affinity) with […] at 37C. […] Increases of HPR beyond equimolar amounts relative to RBP holoprotein (e.g., 2.0 μM HPR to 1.0 μM RBP) will produce a population of RBP which is largely associated with HPR.

[2] = target: interaction of TTR with RBP (Homo sapiens, UniProt P02753); conditions: in vitro; cited from earlier work
abca4 null mutant mice = experiment: Serum retinol after 28 days of daily HPR (LC/MS, HPLC); type: in vivo, mouse; conditions: for effect on serum retinol (in words): ABCA4 null mice
Method: ABCA4 null mutant mice were given the indicated dose of HPR in DMSO (i.p.) daily for 28 days (n=4 mice per dosage group). At the end of the study period, blood samples were taken and serum was prepared. Following acetonitrile precipitation of serum proteins, the concentrations of retinol and HPR were determined from the soluble phase by LC/MS (see FIG. 7). Identity of the eluted compounds was confirmed by UV-vis absorption spectroscopy and co-elution of sample peaks with authentic standards.
Analysis of Serum Retinol. Whole blood was collected from tail veins of HPR-treated mice 18 hrs. following the final HPR dose (i.e., at day 28). Serum was obtained from whole blood following centrifugation at 1,500×g, 10 min. Serum proteins were precipitated with the addition of an equivolume of ice-cold acetonitrile and centrifugation (10,000×g, 10 min). An aliquot was removed from the soluble phase and analyzed by HPLC using an Agilent 1100 series capillary liquid chromatograph equipped with a diode-array detector. Chromatography was performed on a Zorbax SB C18 5 μm column (150×0.5 mm) equilibrated with acetonitrile/water/glacial acetic acid (80:18:2, v/v) at a flow rate of 10 μl/min.

[3] = in vivo; cited from earlier work

For `CC1=C(/C=C/C(C)=C/C=C/C(C)=C/C(=O)Nc2ccc(O)cc2)C(C)(C)CCC1` [HPR, N-(4-hydroxyphenyl)retinamide], the “decrease of serum all-trans retinol” value (abca4 null mutant mouse; 10 mg/kg HPR, 14 days, vs DMSO) was 40%, the “decrease of serum retinol” value (abca4 null mutant mouse; 20 mg/kg HPR, 14 days, vs DMSO) was 72% and the “steady state concentration of retinol in serum” value (abca4 null mutant mouse; at 20 mg/kg HPR) was 2.11 µM. The “differences in light-adapted retinoid levels” value (wild-type mice) was “no significant differences”, the concentration at 7 days [1] was 4 to 6 µM and the “competitive binding of HPR to RBP” value (RBP) was “dose-dependent and saturable”. For the same compound, the “displacement of retinol from RBP-retinol holoprotein” value (RBP; physiological temperature (37C), protein (340 nm) and retinol (470 nm) fluorescence) was “efficiently displaces retinol”, the “effect on interaction of TTR with RBP” value [2] was “interferes with the normal interaction of TTR with RBP” and the “effect on serum retinol (in words)” value (abca4 null mutant mice) was “profound reductions”. For the same compound, the “effect on serum retinol (in words)” value (abca4 null mutant mice; listed as Fenretinide) was “potently and reversibly reduces”, the “effect on serum retinol (in words)” value (abca4 null mutant mice; listed as fenretinide) was “lowered serum retinol levels” and the serum retinol reduction (abca4 null mutant mice; HPR 2.5 mg/kg daily, 28 days) was 20%. The “reduction of RBP-retinol in the circulation” value (abca4 null mutant mice; HPR 10 mg/kg daily, 28 days) was about 50% and the “effect on serum retinol and RBP” value [3] was “reductions in serum retinol and RBP; also recorded: profound reductions”.

— patent publication US20070015827A1, “Methods and compositions for treating ophthalmic conditions via serum retinol, serum retinol binding protein (RBP), and/or serum retinol-RBP modulation” (Sytera, Inc., priority 2005, published 2007)
